Assay results as given in ChEMBL document CHEMBL3352246, “Design and synthesis of novel 5-(3,4,5-trimethoxybenzoyl)-4-aminopyrimidine derivatives as potent and selective phosphodiesterase 5 inhibitors: scaffold hopping using a pseudo-ring by intramolecular hydrogen bond formation” (Bioorg Med Chem Lett, 2014).

Legend:
[1] = Selectivity index, ratio of IC50 for light activated bovine retina PDE6 to IC50 for canine lung PDE5
Corpus cavernosum = test: Relaxant activity in rabbit corpus cavernosum assessed as reduction in phenyepinephrine-induced contraction; type: functional, tissue-based; details: Oryctolagus cuniculus
[2] = target: cGMP-specific 3',5'-cyclic phosphodiesterase (Canis lupus familiaris, UniProt O77746); test: Inhibition of canine lung PDE5 using [3H]cGMP substrate by radiolabeled nucleotide method
[3] = Selectivity index, ratio of IC50 for trypsin activated bovine retina PDE6 to IC50 for PDE5 (unknown origin)
[4] = target: cGMP-specific 3',5'-cyclic phosphodiesterase (Homo sapiens, UniProt O76074); test: Inhibition of PDE5 (unknown origin)
[5] = Selectivity index, ratio of IC50 for light activated bovine retina PDE6 to IC50 for PDE5 (unknown origin)
[6] = Inhibition of light activated bovine retina PDE6 using [3H]cGMP substrate by radiolabeled nucleotide method; design: species or system Bos taurus

Row | SMILES | Ratio IC50 [1] | EC50 (Corpus cavernosum) | IC50 [2] | Ratio IC50 [3] | IC50 [4] | Ratio IC50 [5] | IC50 [6]
1 | COc1ccc(CNc2nc(N3CCOCC3)ncc2C(=O)c2cc(OC)c(OC)c(OC)c2)cc1Cl | 6700 | > 100 nM | 1.5 nM |  |  |  | 
2 | COC(=O)c1c(-c2cc(OC)c(OC)c(OC)c2)c2ccc(OCc3ccccn3)cc2c(=O)n1-c1ccc(N)cc1 |  |  |  | 32 | 1 nM | 650 | 
3 | COc1ccc(CNc2nc(N3CCOC(CO)C3)ncc2C(=O)c2cc(OC)c(OC)c(OC)c2)cc1Cl (stereo not given) | 2800 | 11 nM | 1.8 nM |  |  |  | 
4 | COc1ccc(CNc2nc(N(C)CCO)ncc2C(=O)c2cc(OC)c(OC)c(OC)c2)cc1Cl | > 3700 | 29 nM | 2.7 nM |  |  |  | 
5 | COC(=O)c1nc(NCc2ccc(OC)c(Cl)c2)c2cc(OCc3ccccc3)ccc2c1-c1cc(OC)c(OC)c(OC)c1 |  |  | 3.5 nM |  |  |  | > 10000 nM
6 | COC(=O)c1nc(N2CCC(O)CC2)c2cc(OCc3ccccc3)ccc2c1-c1cc(OC)c(OC)c(OC)c1 |  |  | 2 nM |  |  |  | 590 nM
7 | COc1ccc(CNc2nc(N3CCCCC3)ncc2C(=O)c2cc(OC)c(OC)c(OC)c2)cc1Cl | 2000 |  | 0.74 nM |  |  |  | 
8 | COC(=O)c1ncc2cc(OCc3ccccn3)ccc2c1-c1cc(OC)c(OC)c(OC)c1 |  |  | 34 nM |  |  |  | > 10000 nM

Results, then the compound that gave them:

Row | Ratio IC50 [1] | EC50 (Corpus cavernosum) | IC50 [2] | Ratio IC50 [3] | IC50 [4] | Ratio IC50 [5] | IC50 [6] | SMILES
9 |  |  | 1.5 nM |  |  |  |  | COc1ccc(COc2nc(OCc3ccccn3)ncc2C(=O)c2cc(OC)c(OC)c(OC)c2)cc1Cl
10 | 2200 | 10 nM | 1.7 nM |  |  |  |  | COCCOc1ncc(C(=O)c2cc(OC)c(OC)c(OC)c2)c(NCc2ccc(OC)c(Cl)c2)n1
11 |  |  | 5 nM |  |  |  |  | COc1ccc(CN(C)c2nc(OCc3ccccn3)ncc2C(=O)c2cc(OC)c(OC)c(OC)c2)cc1Cl
12 | 18000 | > 100 nM | 0.66 nM |  |  |  |  | COc1ccc(CNc2cc(OCc3ccccn3)ccc2C(=O)c2cc(OC)c(OC)c(OC)c2)cc1Cl
13 | 2400 | 53 nM | 0.13 nM |  |  |  |  | COc1ccc(CNc2nc(OCc3ccccn3)ncc2C(=O)c2cc(OC)c(OC)c(OC)c2)cc1Cl
14 | 1600 | > 100 nM | 0.38 nM |  |  |  |  | COc1ccc(CNc2nc(OCc3ccccc3)ncc2C(=O)c2cc(OC)c(OC)c(OC)c2)cc1Cl
15 | 560 | 3.1 nM | 3.4 nM |  |  |  |  | COc1ccc(CNc2nc(OCc3ncccn3)ncc2C(=O)c2cc(OC)c(OC)c(OC)c2)cc1Cl
16 | 3200 | > 100 nM | 0.053 nM |  |  |  |  | COc1ccc(CNc2nc(N3CCc4ccccc4C3)ncc2C(=O)c2cc(OC)c(OC)c(OC)c2)cc1Cl
